IC50 data for 60 compounds are collected here from patent US20250026748A1, “N-(5-SUBSTITUTED-[(1,3,4-THIADIAZOLYL) OR (THIAZOLYL)])(SUBSTITUTED)CARBOXAMIDE COMPOUNDS AND USE THEREOF FOR INHIBITING HUMAN POLYMERASE THETA” (Repare Therapeutics Inc., priority 2021, published 2025).

Usually IC50 stands for the midpoint of a concentration-inhibition curve.

For the test, the target named is PolQ ATPase enzyme (1-894) (Homo sapiens (Human), UniProt O75417). In words: Polθ ATPase enzymatic assay (0.5 nM enzyme concentration), ADP-Glo. It is filed as biochemical. As to conditions: average IC50; 0.5 nM PolQ ATPase enzyme (1-894). Summed up:
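Enzyme (0.5 nM) pre-incubated 15 min at rt with 10-point inhibitor series in 50 mM Tris pH 7.5, 10% glycerol, 5 mM DTT, 10 mM MgCl2, 0.1 mg/ml BSA; reaction started with 20 nM fork DNA and 100 μM ATP, run 180 min at rt. ADP-Glo luminescence; IC50 from 4-parameter variable-slope fit.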
(In general: ADP-Glo turns the ADP formed in a reaction into a luminescent signal.)

Chain of PolQ ATPase enzyme (1-894) (O75417 1-894): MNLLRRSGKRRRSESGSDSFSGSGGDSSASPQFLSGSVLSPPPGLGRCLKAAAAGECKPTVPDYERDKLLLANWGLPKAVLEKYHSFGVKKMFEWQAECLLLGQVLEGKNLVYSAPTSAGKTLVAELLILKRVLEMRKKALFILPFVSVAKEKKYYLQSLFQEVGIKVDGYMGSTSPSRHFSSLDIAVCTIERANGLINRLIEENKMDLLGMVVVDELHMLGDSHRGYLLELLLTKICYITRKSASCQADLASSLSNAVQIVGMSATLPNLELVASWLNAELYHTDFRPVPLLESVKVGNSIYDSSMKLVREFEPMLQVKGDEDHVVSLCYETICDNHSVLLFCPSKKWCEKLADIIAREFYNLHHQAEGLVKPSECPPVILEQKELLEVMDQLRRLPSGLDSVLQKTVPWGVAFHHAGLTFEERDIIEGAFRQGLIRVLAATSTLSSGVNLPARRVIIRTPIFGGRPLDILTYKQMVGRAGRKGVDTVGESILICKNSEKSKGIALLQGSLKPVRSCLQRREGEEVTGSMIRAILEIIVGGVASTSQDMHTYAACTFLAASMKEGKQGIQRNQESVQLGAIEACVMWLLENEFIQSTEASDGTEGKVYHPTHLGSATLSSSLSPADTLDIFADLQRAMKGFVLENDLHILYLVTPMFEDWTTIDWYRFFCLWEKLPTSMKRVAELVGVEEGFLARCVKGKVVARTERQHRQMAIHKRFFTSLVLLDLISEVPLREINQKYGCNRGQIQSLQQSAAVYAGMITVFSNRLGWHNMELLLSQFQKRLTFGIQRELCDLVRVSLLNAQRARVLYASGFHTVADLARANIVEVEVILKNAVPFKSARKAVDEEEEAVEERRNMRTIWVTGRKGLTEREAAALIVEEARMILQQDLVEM

Take `COc1cnc(C(F)F)cc1-c1cc(-n2ccc(C)cc2=O)ncc1C(=O)Nc1nnc(C#CC2CC2)s1` [Compound 387, N-(5-(cyclopropylethynyl)-1,3,4-thiadiazol-2-yl)-2″-(difluoromethyl)-5″-methoxy-4-methyl-2-oxo-2H-[1,2′:4′,4″-terpyridine]-5′-carboxamide]: the IC50 is below 0.25 nM.

Turning to `COc1cnc(C(F)F)cc1-c1cc(N2CC3CC3CC2=O)ncc1C(=O)Nc1nnc(C#CC2CC2)s1` (stereo not drawn) [Compound 388], the IC50 was below 0.25 nM. The compound `COc1cnc(C(F)F)cc1-c1cc(N2CC(C)CCC2=O)ncc1C(=O)Nc1nnc(C#CC2CC2)s1` (stereo not drawn) [Compound 389] returned an IC50 below 0.25 nM. The compound `COc1cnc(C(F)F)cc1-c1cc(N2CCCC(C)C2=O)ncc1C(=O)Nc1nnc(C#CC2CC2)s1` (stereo not drawn) [Compound 390] displayed an IC50 below 0.25 nM. As to `COc1cnc(C(F)F)cc1-c1nc(-c2nnc(C)o2)ccc1C(=O)Nc1nnc(C#CC2CC2)s1` [Compound 391], the IC50 is above 100 nM.

`COc1cnc(C(F)F)cc1-c1cc(-c2cnn(S(C)(=O)=O)c2)ncc1C(=O)Nc1nnc(C#CC2CC2)s1` [Compound 393] displayed an IC50 below 0.25 nM. In the case of `COc1cnc(C(F)F)cc1-c1cc(N2CCCCCC2=O)ncc1C(=O)Nc1nnc(C#CC2CC2)s1` [Compound 394], the IC50 was below 0.25 nM. The compound `COc1cnc(C(F)F)cc1-c1cc(N2CCC3(CCC3)CC2=O)ncc1C(=O)Nc1nnc(C#CC2CC2)s1` [Compound 395] yielded an IC50 of 0.25 nM. Compound `C#CC1CC1c1nnc(NC(=O)c2ccc(N3CCOCC3=O)cc2-c2cc(C(F)F)ncc2OC)s1` (stereo not drawn) [Compound 396] showed an IC50 of 10 nM.

With `C#CC1CC1c1nnc(NC(=O)c2ccc(N3CCOCC3=O)cc2-c2cc(C(F)F)ncc2OC)s1` (stereo not drawn) [Compound 397], the IC50 came to 0.39 nM. `COc1cnc(C(F)F)cc1-c1cc(-c2cnn(C3CCNCC3)c2)ncc1C(=O)Nc1nnc(C#CC2CC2)s1` [Compound 398] gave an IC50 of 2.1 nM. With `COc1cnc(C(F)F)cc1-c1cc(-c2cnn(C3CCN(C)CC3)c2)ncc1C(=O)Nc1nnc(C#CC2CC2)s1` [Compound 399], the IC50 is 1.5 nM.

Compound `COc1cnc(C(F)F)cc1-c1cc(N2C(=O)COCC2C)ncc1C(=O)Nc1nnc(C#CC2CC2)s1` (stereo not drawn) [Compound 400] showed an IC50 of 0.46 nM.

The compound `COc1cnc(C(F)F)cc1-c1cc(Cc2nnc(C)o2)ncc1C(=O)Nc1ncc(C#CC2CC2)s1` [Compound 401] gave an IC50 below 0.25 nM.

`COc1cnc(Cl)nc1-c1cc(-c2nnc(C)o2)ccc1C(=O)Nc1nnc(C#CC2CC2)s1` [Compound 402]: it took 0.88 nM to reach half-maximal inhibition (IC50). `O=C(Nc1nnc(C#CC2CC2)s1)c1cnc(-n2ccccc2=O)cc1-c1cc(C(F)F)ncc1Cl` [Compound 403] returned an IC50 below 0.25 nM.

With `COc1cnc(C(F)F)cc1-c1cc(-c2nccn2C)ncc1C(=O)Nc1nnc(C#CC2CC2)s1` [Compound 404], the IC50 is below 0.25 nM. In turn, `COc1cnc(C(F)F)cc1-c1cc(-c2cncn2C)ncc1C(=O)Nc1nnc(C#CC2CC2)s1` [Compound 405] came in with an IC50 below 0.25 nM. `[2H]C([2H])([2H])Oc1cnc(C(F)F)cc1-c1cc(-c2nnc(C)o2)ccc1C(=O)Nc1nnc(C#CC2CC2)s1` [Compound 406] had an IC50 of 2.8 nM.

`COc1cnc(Cl)nc1-c1cc(CC#N)ccc1C(=O)Nc1nnc(C#CC2CC2)s1` [Compound 407] yielded an IC50 below 0.25 nM. As for `COc1cnc(C(F)F)cc1-c1cc(-c2nnc(N(C)C)o2)ccc1C(=O)Nc1nnc(C#CC2CC2)s1` [Compound 408], the IC50 was determined as 1.4 nM. With `COc1cnc(C(F)F)cc1-c1cc(-c2oc(C)nc2C)ncc1C(=O)Nc1nnc(C#CC2CC2)s1` [Compound 409], the IC50 is below 0.25 nM. In the case of `COc1cnc(C(F)F)cc1-c1cc(-c2cnc(C)o2)ncc1C(=O)Nc1nnc(C#CC2CC2)s1` [Compound 410], half-maximal inhibition (IC50) was put at 0.31 nM.

Turning to `COc1cnc(C(F)F)cc1-c1cc(-c2ccn(C)c2)ncc1C(=O)Nc1nnc(C#CC2CC2)s1` [Compound 411], the IC50 stood at 0.37 nM. The compound `COc1cnc(C(F)F)cc1-c1cc(-c2cn(C)c(C)n2)ccc1C(=O)Nc1nnc(C#CC2CC2)s1` [Compound 412] gave an IC50 of 0.25 nM. Compound `COc1cnc(C(F)F)cc1-c1cc(-n2cc(F)ccc2=O)ncc1C(=O)Nc1nnc(C#CC2CC2)s1` [Compound 413] yielded an IC50 below 0.25 nM.

`COc1cnc(C(F)F)cc1-c1cc(-n2cc(F)c(C)cc2=O)ncc1C(=O)Nc1nnc(C#CC2CC2)s1` [Compound 414]: the IC50 was below 0.25 nM.

As to `COc1cnc(C(F)F)cc1-c1cc(N2CCN3CCCC3C2=O)ncc1C(=O)Nc1nnc(C#CC2CC2)s1` (stereo not drawn) [Compound 415], the IC50 stood at 0.25 nM. In the case of `COc1cnc(C(F)F)cc1-c1cc(-c2cn(C)nc2F)ncc1C(=O)Nc1nnc(C#CC2CC2)s1` [Compound 416] it was 0.69 nM. Compound `COc1cnc(Cl)nc1-c1cc(-c2ccn(C)n2)ncc1C(=O)Nc1nnc(C#CC2CC2)s1` [Compound 417] displayed an IC50 of 3.7 nM. Regarding `COc1cnc(C(F)F)cc1-c1cc(-c2nnc(NC(C)=O)o2)ccc1C(=O)Nc1nnc(C#CC2CC2)s1` [Compound 418], the IC50 was determined as 1.6 nM. `COc1cnc(C(F)F)cc1-c1cc(-c2cnn(CC#N)c2)ncc1C(=O)Nc1nnc(C#CC2CC2)s1` [Compound 419] came in with an IC50 of 0.72 nM.

`COc1cnn(-c2cc(-c3cc(C(F)F)ncc3OC)c(C(=O)Nc3nnc(C#CC4CC4)s3)cn2)c(=O)c1` [Compound 420] had an IC50 of 0.31 nM. To `COc1cnc(C(F)F)cc1-c1cc(-n2ncccc2=O)ncc1C(=O)Nc1nnc(C#CC2CC2)s1` [Compound 421] belongs below 0.25 nM. `COc1cnc(C(F)F)cc1-c1cc(-c2cccc(C)n2)ncc1C(=O)Nc1nnc(C#CC2CC2)s1` [Compound 422]: the IC50 turned out to be 0.54 nM. On to `COc1cnc(C(F)F)cc1-c1cc(N2CC3(CCC2=O)CC3)ncc1C(=O)Nc1nnc(C#CC2CC2)s1` [Compound 426], for which the IC50 was determined as 0.39 nM. For the compound `COCCn1ccc(-c2cc(-c3cc(C(F)F)ncc3OC)c(C(=O)Nc3nnc(C#CC4CC4)s3)cn2)n1` [Compound 427], the IC50 was 0.27 nM. Take `COc1cnc(C(F)F)cc1-c1cc(-c2noc(C)n2)ncc1C(=O)Nc1nnc(C#CC2CC2)s1` [Compound 428]: the IC50 is below 0.25 nM. The compound `Cc1nnc(-n2cc(-c3cc(C(F)(F)F)ccc3Cl)c(C(=O)Nc3nnc(C#CC4CC4)s3)cc2=O)o1` [Compound 429] yielded an IC50 below 0.25 nM. To `COc1cnc(C(F)F)cc1-c1cc(-c2nc(C)co2)ncc1C(=O)Nc1nnc(C#CC2CC2)s1` [Compound 430] belongs below 0.25 nM; to `C#C[C@H]1CC1c1nnc(NC(=O)c2cnc(-n3ccc(C)cc3=O)cc2-c2cc(C(F)F)ncc2OC)s1` (stereo partly drawn) [Compound 431], below 0.25 nM. In turn, `COc1cnc(C(F)F)cc1-c1cc(N2CCN(C)C3(CC3)C2=O)ncc1C(=O)Nc1nnc(C#CC2CC2)s1` [Compound 432, N-(5-(cyclopropylethynyl)-1,3,4-thiadiazol-2-yl)-2′-(difluoromethyl)-5′-methoxy-6-(4-methyl-8-oxo-4,7-diazaspiro[2.5]octan-7-yl)-[4,4′-bipyridine]-3-carboxamide] registered an IC50 below 0.25 nM. The compound `CCc1nn(C)cc1-c1cc(-c2ccn(C)n2)ncc1C(=O)Nc1nnc(C#CC2CC2)s1` [Compound 433] registered an IC50 of 6.2 nM. The compound `COc1ccn(-c2cc(-c3cc(C(F)F)ncc3OC)c(C(=O)Nc3nnc(C#CC4CC4)s3)cn2)c(=O)c1` [Compound 434] registered an IC50 below 0.25 nM. `COc1cnc(C(F)F)cc1-c1cc(-n2ncc(C)cc2=O)ncc1C(=O)Nc1nnc(C#CC2CC2)s1` [Compound 435]: the IC50 is below 0.25 nM. `COc1cnc(C(F)F)cc1-c1cc(-c2ccc(C)cn2)ncc1C(=O)Nc1nnc(C#CC2CC2)s1` [Compound 436] gave an IC50 below 0.25 nM. `COc1cnc(C(F)F)cc1-c1cc(-n2cccc(C)c2=O)ncc1C(=O)Nc1nnc(C#CC2CC2)s1` [Compound 437] gave an IC50 below 0.25 nM. The compound `COc1cnc(C(F)F)cc1-c1cc(-n2cccc(OC)c2=O)ncc1C(=O)Nc1nnc(C#CC2CC2)s1` [Compound 438] gave an IC50 below 0.25 nM.

`COc1cnc(C(F)F)cc1-c1cc(-n2ccc3occc3c2=O)ncc1C(=O)Nc1nnc(C#CC2CC2)s1` [Compound 439] came in with an IC50 below 0.25 nM.

As to `COc1cnc(C(F)F)cc1-c1cc(-n2cc(C)ccc2=O)ncc1C(=O)Nc1nnc(C#CC2CC2)s1` [Compound 440], the IC50 is below 0.25 nM. Consider `COc1cnc(C(F)F)cc1-c1cc(N2CCCN(C)CC2=O)ncc1C(=O)Nc1nnc(C#CC2CC2)s1` [Compound 441], for which the IC50 was found to be 0.43 nM. Compound `COc1cnc(C(F)F)cc1-c1cc(N2CCCC(C)(C)C2=O)ncc1C(=O)Nc1nnc(C#CC2CC2)s1` [Compound 442] had a half-maximal inhibitory concentration (IC50) below 0.25 nM. To `COc1cnc(C(F)F)cc1-c1cc(N2CCC3CCC3C2=O)ncc1C(=O)Nc1nnc(C#CC2CC2)s1` (stereo not drawn) [Compound 443] belongs below 0.25 nM; to `COc1cnc(C(F)F)cc1-c1cc(N2CCC(C(C)(C)C)CC2=O)ncc1C(=O)Nc1nnc(C#CC2CC2)s1` (stereo not drawn) [Compound 444], below 0.25 nM; to `COc1cnc(C(F)F)cc1-c1cc(-n2ccc(C(F)(F)F)cc2=O)ncc1C(=O)Nc1nnc(C#CC2CC2)s1` [Compound 445], below 0.25 nM. With `COc1cnc(C(F)F)cc1-c1cc(CC(=O)N2CC(F)(F)C2)ncc1C(=O)Nc1nnc(C#CC2CC2)s1` [Compound 446], the IC50 was below 0.25 nM. Compound `COc1cnc(C(F)F)cc1-c1cc(CC(=O)N2CC(F)(F)C2)ncc1C(=O)Nc1ncc(C#CC2CC2)s1` [Compound 447] had an IC50 below 0.25 nM.

Regarding `Cc1ccn(-c2cc(-c3cc(C(F)F)ncc3Cl)c(C(=O)Nc3nnc(C#CC4CC4)s3)cn2)c(=O)c1` [Compound 448], the IC50 was below 0.25 nM. `COc1cnc(C(F)F)cc1-c1cc(-n2cccc(F)c2=O)ncc1C(=O)Nc1nnc(C#CC2CC2)s1` [Compound 449] showed an IC50 below 0.25 nM.

`COc1cnc(C(F)F)cc1-c1cc(-c2cc(C)n(C)n2)ncc1C(=O)Nc1nnc(C#CC2CC2)s1` [Compound 450] came in with an IC50 of 0.48 nM.
